Results on two compounds are retold here after patent US7763660B2, “Inhibitors of Candida albicans” (The University of Vermont and State Agricultural College, priority 2003, dated 2010).

For one data set, the system named is C. albicans cells. Briefly: small molecule screen for inhibitors of the Spider media-induced budded-to-hyphal transition. The data set is classed as cell-based, Candida albicans. On the procedure:
For the screen, C. albicans cells were grown in YNB media that inhibits hyphal growth and then transferred to 384-well optical plates containing Spider media to induce the budded-to-hyphal transition and hyphal elongation. […] In FIG. 3, the indicated small molecules were added at the indicated concentrations at time 0 and growth was allowed to continue for 4 h at 37° C. before the cells were fixed and observed microscopically. YNB media is well known in the art and contains yeast nitrogen base (DIFCO Labs.), glucose (US Biological) and d-H2O. Spyder media is well known in the art and contains nutrient broth (DIFCO Labs.), mannitol (Sigma-Aldrich), K2HPO4 (Sigma-Aldrich) and d-H2O.
Next, small molecules were assayed for their ability to inhibit the Spider media-induced hyphal growth.
The basic microscopic screen was described in detail above. To identify inhibitors, C. albicans cells are initially grown in YNB media that inhibits hyphal growth and then transferred to 384-well optical assay plates containing Spider media to induce the transition to hyphae. Individual molecules from the Chembridge small molecule library (Kao, R. Y. T., et al., 2002, Proc. Natl. Acad. Sci. USA 99: 10066-10071), or other library, are transferred from a 384-well plate containing stock solutions to individual wells of the assay plates. For convenience, positive and negative controls may be located at each corner of the plate. These plates are incubated at 37° C. for 4 h to allow for hyphal elongation before the cells are fixed and screened. Screening occurs on an inverted Nikon microscope with a computer driven XY stage with DIC/Hoffman optics, digital SPOT® camera and automatic shutter. Pictures are automatically taken of each well with the plate number and well position embedded in the picture through a script written for OpenLab® image analysis software from Improvision (INVIVO, from QED Imaging, Inc.). Inhibitory molecules are identified by rapidly screening a picture of each well for the presence of budded cells and absence of hyphal cells. Each inhibitor is retested at both 4 h and 16 h to eliminate those compounds that are cytotoxic, delay hyphal formation, or delay elongation through a growth defect. Molecules that give consistent inhibition of the budded-to-hyphal transition with continued budded growth with no hyphae out to 16 are further characterized as described below. A dose-response for each molecule is established through serial dilutions in order to determine the threshold concentration of each molecule. Typical threshold concentrations range from about 1 to about 100 micromolar (μM). In addition, the reversibility of each molecule is tested by washing out the molecule and adding fresh Spider media; cells that resume hyphal growth indicate that the molecule is reversible in action and that the molecule's initial effects were not due to cytotoxicity.

The conditions of data set [1]: Scott, V. R., et al., 1988; cited from earlier work.

SMILES strings stand for the structures.

Regarding `C/C1=C/C(=O)O[C@@H]2C[C@@H](CC[C@H](C)/C=C\C=C\CC1)O[C@@](O)([C@@H]1CSC(=O)N1)C2` [Lat A, latrunculin-A], the “dose-dependence of the inhibition” value in the data set with C. albicans cells was “dose-dependent”. The “reversibility of the inhibition” value with C. albicans cells was “reversible”. For the same compound, the “inhibition of the budded-to-hyphal transition and hyphal growth” value in the data set with C. albicans cells (0.1 μM, 4 h at 37° C.) was “effect was lost”; in the data set on C. albicans cells (1.6 μM added at time 0, 4 h at 37° C.), “inhibited the budded-to-hyphal transition and hyphal growth”.
In the case of `C/C1=C\[C@H](C)C[C@H](C)OC(=O)C[C@H](c2ccc(O)cc2)NC(=O)[C@@H](Cc2c(Br)[nH]c3ccccc23)N(C)C(=O)[C@H](C)NC(=O)[C@@H](C)C1` [jasplakinolide], in the data set on C. albicans cells (4 h at 37° C. (FIG. 3)), the “cell phenotype in the screen” value is “apparent cell-cycle arrest as small budded cells” and the “cytotoxicity in the screen” value was “dose-dependent cytotoxic molecule”. The anti-fungal activity entry in data set [1] is recorded as “previously shown to have anti-fungal activity”.
